Measured values reported in BindingDB's records for doi:10.1080/14756360701536455 (Pcsir Laboratories Complex, 2008).

Columns and labels:
[1] = molecular target: Carboxylic ester hydrolase (Equus caballus, UniProt Q9N1N9); experiment: Cholinesterase Inhibition Assay; conditions: pH 8; 25 °C
Description: Butyrylcholinesterase activity-inhibiting activities were measured by a slightly modified spectrophotometric method developed by Ellman. DTNB was used for the measurement of cholinesterase activity and butyrylthiocholine chloride was used as a substrate.

[2] = molecular target: T1, Seed linoleate 13S-lipoxygenase-1 (Glycine max, UniProt P08170); experiment: Lipoxygenase Inhibition Assay; conditions: pH 8; 25 °C
T1 sequence (P08170 whole entry): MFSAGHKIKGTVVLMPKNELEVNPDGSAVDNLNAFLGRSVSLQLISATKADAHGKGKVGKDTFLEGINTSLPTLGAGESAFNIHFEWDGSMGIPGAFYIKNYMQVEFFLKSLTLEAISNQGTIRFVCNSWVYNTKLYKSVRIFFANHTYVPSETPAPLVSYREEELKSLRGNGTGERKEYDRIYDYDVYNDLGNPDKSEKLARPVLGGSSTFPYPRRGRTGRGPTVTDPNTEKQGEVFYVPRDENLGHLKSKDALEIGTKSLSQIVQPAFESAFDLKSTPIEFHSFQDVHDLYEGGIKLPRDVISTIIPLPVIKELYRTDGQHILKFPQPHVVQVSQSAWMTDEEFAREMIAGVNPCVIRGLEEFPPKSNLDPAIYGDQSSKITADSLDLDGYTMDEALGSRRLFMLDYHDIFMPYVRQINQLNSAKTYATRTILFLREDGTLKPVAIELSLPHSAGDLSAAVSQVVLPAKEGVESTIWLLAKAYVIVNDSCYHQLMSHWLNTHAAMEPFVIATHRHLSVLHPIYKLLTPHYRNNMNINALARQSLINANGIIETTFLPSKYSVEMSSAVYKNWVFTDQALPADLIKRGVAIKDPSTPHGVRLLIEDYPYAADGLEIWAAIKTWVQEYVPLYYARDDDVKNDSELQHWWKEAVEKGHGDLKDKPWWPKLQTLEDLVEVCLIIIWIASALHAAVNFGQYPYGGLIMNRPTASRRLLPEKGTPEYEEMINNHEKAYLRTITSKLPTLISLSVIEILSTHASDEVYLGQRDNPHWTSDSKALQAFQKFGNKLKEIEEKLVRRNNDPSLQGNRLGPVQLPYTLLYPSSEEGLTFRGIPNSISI
Description: LOX inhibiting activity was measured by modifying the spectrophotometric method developed by Tappel.

Carboxylic ester hydrolase, sequence (Q9N1N9 whole entry): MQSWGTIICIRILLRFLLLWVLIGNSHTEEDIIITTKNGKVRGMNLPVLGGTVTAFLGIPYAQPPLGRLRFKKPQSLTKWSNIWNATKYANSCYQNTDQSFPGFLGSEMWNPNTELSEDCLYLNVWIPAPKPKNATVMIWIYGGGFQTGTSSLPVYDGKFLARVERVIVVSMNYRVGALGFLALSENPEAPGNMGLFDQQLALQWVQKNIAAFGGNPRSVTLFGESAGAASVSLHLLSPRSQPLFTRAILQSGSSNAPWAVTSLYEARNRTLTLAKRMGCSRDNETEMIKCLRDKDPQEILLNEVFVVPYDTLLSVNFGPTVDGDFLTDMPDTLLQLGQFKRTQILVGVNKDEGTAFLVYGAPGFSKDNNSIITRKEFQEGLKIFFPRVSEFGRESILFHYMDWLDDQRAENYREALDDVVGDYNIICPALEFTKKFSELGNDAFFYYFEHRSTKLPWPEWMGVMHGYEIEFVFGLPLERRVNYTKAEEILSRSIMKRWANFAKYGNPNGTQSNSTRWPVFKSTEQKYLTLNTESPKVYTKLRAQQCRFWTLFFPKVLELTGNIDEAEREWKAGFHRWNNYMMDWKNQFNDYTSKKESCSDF

| SMILES | IC50 [1] [µM] | IC50 [2] [µM] |
| --- | --- | --- |
| C=CC(CC(=NOS(=O)(=O)O)SC1OC(CO)C(O)C(O)C1O)OC(=O)CC1(O)C(=O)Nc2ccccc21 (stereo not drawn) [3'-Hydroxyepiglucoisatisin, 3] | 16.3 | 30.6 |
| O=S(=O)(O)ON=C(Cc1cc2ccccc2n1S(=O)(=O)O)SC1OC(CO)C(O)C(O)C1O (stereo not drawn) [Sulfoglucobrassicin, 4] | 24.8 | 41.9 |
| COc1ccc2c3c1O[C@H]1C[C@@H](O)C=C(CN(C)C2)[C@H]31 [Galanthamine, 7] | 8.5 |  |
| O=C(O)CC(=O)OCC1OC(Oc2c[nH]c3ccccc23)C(O)C(=O)C1O (stereo not drawn) [Isatan A, 5] | 43.4 | 49.3 |
| O=C1C(O)C(CO)OC(Oc2c[nH]c3ccccc23)C1O (stereo not drawn) [Isatan B, 6] | 47.6 | 53.8 |
| N#CC(=C1Nc2ccccc2C1=O)c1c[nH]c2ccccc12 [2-[Cyano(3-indolyl)methylene]-3-indolone, 1] | 23.5 | 39.1 |
| C=CC(CC(=NOS(=O)(=O)O)SC1OC(CO)C(O)C(O)C1O)OC(=O)CC1C(=O)Nc2ccccc21 (stereo not drawn) [Epiglucoisatisin, 2] | 19.7 | 33.7 |
